Test results reported in US20030119797A1, “Methods for selective immunomodulation” (priority 2001, published 2003).
pIC50: −log10 of the molar value. “Also recorded” adds a separate entry of the source. Read-outs that look alike come from different tables or passages of the source. Each block holds one molecule with its values, some of them ahead of it.

Key:
IBD patients = conditions: cited from earlier work
psoriatic patients = conditions: human, in vivo
Description: A clinical study was initiated with an oral formulation of pimecrolimus to treat psoriatic patients. Pimecrolimus was evaluated as treatment for psoriasis using an oral dose of 60 mg (30 mg b.i.d) during a 4-week clinical study. The cohort included 10 patients; 8 received the treatment and 2 received a placebo.
The dose used in the study was 60 mg/day, given as 30 mg b.i.d. To make this dose the 20 mg tablets were cut in half using a special cutter (Tablettenteiler NR.96) so as to obtain 30 mg of pimecrolimus or a matched amount of placebo.
In this study the relationship of trough concentration to clinical results was also determined.

[1] = system: antigen-induced pulmonary eosinophilia; assay: Rat model of asthma: antigen-induced pulmonary eosinophilia in actively sensitized Brown Norway Rats; assay type: in vivo; conditions: single and multiple challenge models
Description: Another study looked at the effects of oral administration of pimecrolimus on antigen-induced pulmonary eosinophilia in actively sensitized Brown Norway Rats.

[2] = system: allergen induced airway eosinophilia; assay: Mouse model of asthma: aeroallergen induced eosinophil influx into the lungs of sensitized mice; assay type: in vivo
[3] = human, in vivo
Description: In this study pimecrolimus was rapidly absorbed with a median tmax across all the dose groups and collection days of between 0.8 and 2.0 hours. […] There was no effect of age or weight on the apparent clearance of pimecrolimus.

[4] = system: SCID mice reconstituted with CD4+CD45RBHi T cells (SCID-IBD); assay: SCID-IBD mouse model, treatment started the day after T cell transfer; assay type: in vivo
Text: It is known that the transfer of syngeneic, naive T lymphocytes (CD4^+CD45RB^Hi) into SCID mice results in a severe colitis and wasting disease, SCID-IBD.
In this study, SCID mice reconstituted with CD4^+CD45RB^Hi T lymphocytes were used. These mice are known to develop chronic colitis with characteristics similar to human IBD, as described above.
[…] […] BW was monitored throughout. On termination, blood was withdrawn, spleen, mesenteric lymph nodes (MLN) and colon were removed. Serum haptoglobin levels were measured (ELISA), colitis was assessed histologically and lymphocyte and neutrophil numbers were calculated from FACS analysis of blood, spleen and MLN cell suspensions.
In order to determine the efficacy of ASM981 treatment in preventing intestinal mucosal damage in SCID-IBD mice, a histological examination of the colon sections was performed according to defined morphological parameters. All colon sections were assessed according to a scheme awarding degrees of severity governed by the extent of cell infiltration and inflammation with a score of 8 being the maximum.

in vivo = conditions: rat, po, 25 mg/kg
Description: In another study designed to explore the differences between pimecrolimus and FK506 and to determine whether these differences might be associated with a different tissue distribution, the exposure to pimecrolimus and FK506 in various organs after oral administration were measured. Animals received 2 oral doses of 25 mg/kg in an interval of 2 hours. […] Pimecrolimus was found consistently to have a higher skin/blood concentration ratio than FK506 (2 hours: 7.3 vs. 2.8; 6 hours: 13 vs. […]; 24 hours: 36 vs. 6.0). The AUC0-24h in skin calculated for pimecrolimus was twice as high as with FK506.
These distribution characteristics are relevant not only for oral, but also for topical application, as the compound enters systemic circulation after permeation through the skin.

[5] = system: allergic contact dermatitis (ACD); assay: Rat model of allergic contact dermatitis (ACD); assay type: in vivo; conditions: oral, same doses
[6] = in vivo, po
[7] = system: gene expression in blood cells; conditions: days 13 or 14 vs baseline, 30 mg b.i.d. oral
Description: Pimecrolimus was evaluated as treatment for psoriasis using an oral dose of 60 mg (30 mg b.i.d) during a 4-week clinical study. The cohort included 10 patients; 8 received the treatment and 2 received a placebo. Blood samples were collected before the first administration to establish the gene expression baseline and on days 13 or 14 after treatment with pimecrolimus or placebo and submitted to gene expression analysis in order to gain insights into the mechanisms of action of the compound.
The RNA from blood samples drawn from each patient in the study was extracted and tested on individual DNA microarrays, thus allowing, for each patient, a comparison of gene expression before and after pimecrolimus treatment. […] Genes that were consistently modulated were sorted in functional categories.

[8] = system: mixed-lymphocyte reaction; assay: mixed-lymphocyte reaction (MLR) assay; assay type: cell-based, mouse
Text: In addition to the IL-2 reporter gene assay, the concentration of immunosuppressants, such as pimecrolimus and FK506 can be measured by the mixed-lymphocyte reaction (see Meo, “The MLR in the Mouse”, Immunological Methods, Lefkovits and Pernis, Eds., p. 227 Academic Press, NY).

[9] = system: allergic contact dermatitis (ACD); assay: Skin inflammation and lymph nodes during sensitization and elicitation phase of ACD; assay type: in vivo
CYP3A enzyme subfamily = assay: Elimination / metabolism of pimecrolimus; assay type: in vitro ADME
[10] = system: systemic immune responses; assay: Models of systemic immunosuppression (graft-versus-host reaction, antibody formation to sheep red blood cells, kidney transplantation); assay type: in vivo, rat
Text: Pimecrolimus (also called ASM981 and ELIDEL®) is an ascomycin macrolactam-derivative with anti-inflammatory properties, chemical name is 33-epichloro-33-desoxy-ascomycin. Pimecrolimus is an ascomycin macrolactam-derivative developed originally for topical and oral treatment of inflammatory skin diseases such as atopic dermatitis and psoriasis. Pimecrolimus binds to macrophilin-12 and inhibits the Ca-dependent phosphatase calcineurin. As a consequence, it inhibits T cell activation and blocks the transcription and release of both Th1 and Th2 inflammatory cytokines. […] Tachyphylaxis has not been observed.

[11] = system: SCID mice reconstituted with CD4+CD45RBHi T cells (SCID-IBD); assay: SCID-IBD mouse model, delayed treatment of established IBD; assay type: in vivo; conditions: 100 mg/kg/day p.o. started after 7, 14 or 21 days, until 41 days
Description: In order to determine if pimecrolimus is also effective once IBD is established, SCID mice were treated with pimecrolimus at a dose level of 100 mg/kg/day at days 7, 14 or 21 following the transfer of the disease causing CD4^+ T cells. The study was terminated after 41 days, i.e., the mice were treated for 33, 26 and 19 days, respectively. The results are shown in FIGS. 10-12, and described below.
SCID mice were reconstituted with 2×10^5 CD4^+CD45RB^Hi T cells and treatment with pimecrolimus (100 mg/kg/day p.o.) started after 7, 14 or 21 days and continued daily until 41 days. Treatment with the placebo formulation started after 7 days. BW was monitored once a week for the first 2 weeks and then twice weekly. Data are expressed as mean percent BW relative to the weight on day 0±s.e.m. for n=9 (PBS), n=8 (ASM(7d) & ASM(21d) and n=7 (ASM(14d) and placebo) mice per group. PBS refers to the non-transferred mice which have been pooled with regard to percent BW values since no treatment dependent changes were found. p<0.01 relative to the placebo-treated group at 41 days.
SCID mice were reconstituted with 2×10^5 CD4^+CD45RB^Hi T cells and treatment with pimecrolimus (100 mg/kg/day p.o.) started after 7,14 or 21 days and continued daily until 41 days. […] Data are expressed as mean haptoglobin (mg/mL)±s.e.m. for n=9 (PBS), n=8 (ASM(7d)) and n=7 (ASM(14d), ASM(21d) and placebo) mice per group. […]

promoter for human IL-2 = assay: IL-2 reporter gene assay; assay type: cell-based; conditions: read-out: IC50 (concentration required for 50% inhibition)
Description: The reporter gene is any gene expressing a readily observable product, e.g., an enzyme marker such as β-galactosidase or luciferase, or any other suitable enzyme marker. For example, where the enzyme marker is β-galactosidase, the reporter gene is, e.g., a bacterial lacZ gene; where the enzyme marker is luciferase, the gene is, e.g., a Phorinus luciferase gene. […] The promoter gene is a promoter gene for a cytokine or protein for which transcription is stimulated or suppressed by the drug to be monitored.
Blood samples from the patient are diluted, their effect on gene expression in the above described system is measured, and the assay is standardized using known concentrations of the immunosuppressive material.

Molecule: O=C(O)c1cc(/N=N/c2ccc(S(=O)(=O)Nc3ccccn3)cc2)ccc1O [Sulphasalazine, reference compound]
- healthy control subjects reporting side effects related to the sulphapyridine moiety (IBD patients; healthy control subjects): ≤ 80%
- patients reporting side effects related to the sulphapyridine moiety (IBD patients; patients): up to 45%

Molecule: 33-epichloro-33-desoxy-ascomycin [Pimecrolimus]
- change in physical examination, blood pressure, electrocardiogram, safety laboratory tests or renal function (psoriatic patients): no clinically significant change was observed
- serious adverse side effects (psoriatic patients): no serious adverse side effects in any patient
- allergen induced airway eosinophilia and IL-4 cytokine production [1]: inhibit
- allergen induced airway eosinophilia and IL-4 cytokine production ([2]; mouse, single and multiple challenge models): inhibit
- eosinophil count in the lung and eosinophil peroxidase activity ([2]; sensitized mice, oral administration): able to reduce
- time to steady-state [3]: 6 to 13 days
- dose dependence of Cmax and AUCτ ([3]; po): dose proportional
- effect of age or weight on the apparent clearance ([3]; po): no effect
- trough concentration associated with a significant clinical response in the target epithelial tissue ([3]; po): ≥ 7 ng/mL
- AUCτ,b Mean ± SD ([3]; po, 10 mg): 102.8 ± 41 .4 ng · h/mL
- Cmax,b Mean ± SD ([3]; po, 20 mg): 42 4 ± 10.8 ng/mL
- colitis, histological examination of colon sections ([4]; 30 mg/kg/day p.o.): moderate to severe inflammation
- colitis, histological examination of colon sections ([4]; 60 mg/kg/day p.o.): moderate
- inhibition of lymphocyte numbers in blood, spleen and MLN ([4]; 100 mg/kg/day): not observed
- mice with macroscopically normal feces ([4]; 100 mg/kg/day group): Approximately half of the mice
- colitis, histological examination of colon sections ([4]; 100 mg/kg/day p.o.): only mildly inflamed colons
- neutrophil infiltration into the colon (myeloperoxidase activity in colon homogenates) ([4]; 100 mg/kg/day p.o.): completely blocked
- loss of BW associated with the disease ([4]; oral, 4 weeks, dose range 30-100 mg/kg/day, dose-responsive): prevented the severe loss of BW
- diarrhea ([4]; p.o., 30-100 mg/kg/day): improved in a dose-dependent fashion
- severe colitis relative to placebo-treated SCID-IBD mice ([4]; p.o., 30-100 mg/kg/day): significantly inhibited
- AUC0-24h in skin relative to FK506 (in vivo): twice as high
- exposure in all other tissues, including blood, lymph nodes and kidney (in vivo): lower than to FK506
- efficacy compared to FK506 [5]: superior
- drug accumulation [6]: does not lead to drug accumulation in the blood or tissues
- expression of Kallistatin [7]: up-regulated
- expression of asthma related genes (RANTES, GALECTIN-3, Thromboxane A2 receptor, Glutathione peroxidase) [7]: specifically and significantly down-regulated
- expression of genes necessary for chemotaxis and cellular migration (LFA-1, P-selectin ligand, L-selectin) [7]: dramatic down-regulation
- expression of genes of the Macrolactam target pathway (macrophilin 12), cellular activation and proliferation (Histone2, Histone 3.3, cyclin D2) [7]: down-regulate
- expression of inflammatory mediators (Leukotriene A4 hydrolase, prostaglandin endoperoxide synthase) [7]: strongly down regulate
- pIC50 [8]: 8.05
- primary site of action [9]: primarily interferes with inflammation in the skin
- route of elimination (CYP3A enzyme subfamily): predominantly via metabolism involving an oxidative mechanism catalyzed by the CYP3A enzyme subfamily
- therapeutic window of anti-inflammatory activity in the skin versus systemic immunosuppression as compared to FK506 ([10]; rats, q.d., s.c.): clearly increased therapeutic window
- systemic immunosuppressive effects compared to CyA or FK506 ([10]; transplantation and vaccination models): only a low potential to impair systemic immune responses; also recorded: minimal general systemic immunosuppressive effects
- blood and spleen neutrophilia associated with established/ongoing colitis [11]: strongly inhibits
- loss of BW associated with established/ongoing mild to severe colitis [11]: highly-effective in reversing the loss of BW
- pIC50 (promoter for human IL-2): 8.82

Molecule: C=CC[C@@H]1/C=C(\C)C[C@H](C)C[C@H](OC)[C@H]2O[C@@](O)(C(=O)C(=O)N3CCCC[C@H]3C(=O)O[C@H](/C(C)=C/[C@@H]3CC[C@@H](O)[C@H](OC)C3)[C@H](C)[C@@H](O)CC1=O)[C@H](C)C[C@@H]2OC [FK506, tacrolimus, reference compound]
- Kp at 2 h (in vivo): 2.8
- Kp at 24 h (in vivo): 6
- skin/blood concentration ratio (in vivo; 6 h): 1.6
- pIC50 ([8]; Mus musculus): 9.00
- primary site of action [9]: acts primarily on the subcutaneous lymphoid tissue

Molecule: Infliximab: chimeric anti-TNF alpha antibody
- patients in whom remission is achieved (IBD patients; CD patients, infusion): up to 60%
- patients who develop side effects (IBD patients; e.g., nausea, upper respiratory tract infections, abdominal pain and headache): up to 60%
- patient population which develops human anti-chimeric antibodies (IBD patients; human, in vivo): 13-30%
- patients who suffered serious infusion reactions (IBD patients; human, in vivo): Sixteen percent

Molecule: Cn1cnc([N+](=O)[O-])c1Sc1ncnc2nc[nH]c12 [AZA, Azathioprine, reference compound]
- patients who get pancreatitis or more severe allergic reactions (IBD patients; human, in vivo): 3-15%

- BW at the doses needed to inhibit colitis ([4]; 3 and 10 mg/kg/day p.o.): steroid-related accelerated loss in BW
Molecule: C[C@@H]1C[C@H]2[C@@H]3CCC4=CC(=O)C=C[C@]4(C)[C@@]3(F)[C@@H](O)C[C@]2(C)[C@@]1(O)C(=O)CO [dexamethasone, Dexamethasone, reference compound]
